Source: patent US11021687B2, “Production of differentiated enteroendocrine cells and insulin producing cells” (Massachusetts Institute of Technology, priority 2016, dated 2021)

Experiments:
intestinal stem cells [1] = assay: ChgA immunostaining of EEC differentiation from intestinal stem cells; format: cell-based, mouse; details: organoid culture (ENR) with Notch inhibitor DAPT (ENRD)
Protocol: “ChgA Immunostaining Assay” as used herein is an assay used to determine the fraction of cells in a cell population that express ChgA by an immunostaining method. In an example of a ChgA immunostaining assay, a cell culture medium in which a cell population has been treated is removed, and the sample is washed with PBS. Organoids or cell colonies cultured in Matrigel are fixed directly by adding 4% PFA and incubating for 20 mins at room temperature. The Matrigel is then mechanically disrupted, and the cells are transferred to BSA-coated Eppendorf tubes. Samples are washed with PBS, permeabilized with 0.25% Triton X-100 for 30 minutes, and stained with primary antibody against Chromogranin A (e.g. anti-chromogranin A, sc-13090, Santa Cruz) and appropriate secondary antibodies (e.g. Alexa Fluor conjugated secondary antibodies, such as Alexa Fluor 594 conjugated Donkey anti-Rabbit antibody, A-21207; Life Technologies). Images are acquired by confocal microscopy.
Differentiated cell colonies were collected by gently pipetting into a 1.5 ml protein Lobind Eppendorf tube. Cell culture medium was removed, and samples were washed with PBS. Organoids or cell colonies cultured in Matrigel were fixed by directly adding 4% PFA and incubating for 10-30 min at room temperature. Matrigel was then mechanically disrupted, and cells were transferred into BSA-coated Eppendorf tubes. […]

[2] = test system: gastrointestinal stem cells; assay: Insulin / Nkx6.1 mRNA expression (qPCR), 3-stage conversion to insulin producing cells; format: cell-based, mouse; details: dose response
Source text: “mRNA Insulin Expression Assay” refers to an assay used to determine the relative insulin mRNA expression level of a cell population. For example, the assay can determine the insulin mRNA level expressed in a cell population treated to increase the expression of insulin in the cells, as compared to an untreated population of cells. In an exemplary mRNA Insulin Expression Assay, the cells were collected and the RNA is extracted from the cells using an RNA extraction kit (such as RNeasy Mini kit, Qiagen). The insulin expression level is then assessed by Quantitative real-time PCR using a one-step qPCR kit (such as QuantiTech Probe PCR kit, Qiagen) and Ins1 or Ins2 primers and probes (such as the commercially available TaqMan probe for mouse Ins1 and Ins2, Life Technologies). The relative insulin mRNA expression can be determined relative to a baseline or other marker, such as Hprt mRNA expression level or other baseline marker.
(§1) Organoids or differentiated cells were harvested and RNA was extracted using RNeasy Micro Kit (Qiagen) according to the manufacturer's instruction. Quantitative real-time PCR was performed with QuantiTect Probe PCR kit (Qiagen) using commercially available primers and TaqMan probes (Life Technologies).
Based on the protocol to convert gastrointestinal stem cells into insulin producing cells, a 3-stage process was developed, specifically, Day 0-1 as Stage 1, Day 1-3 as Stage 2, Day 3-5 as Stage 3. After Stage 3, the cells turn on significant level of Insulin expression as indicated by Ins-EGFP expression and qPCR for Insulin mRNA expression. Optionally, the cells can be further cultured for 1-2 weeks, as Stage 4. For each stage, a set of specific combination of small molecules (and/or growth factors) were added. The objective was to optimize the reprogramming protocol to increase insulin expression, specifically Insulin mRNA expression for each stage, by screening and testing new small molecules (or growth factors).

[3] = test system: differentiated cell colonies; details: continuing culture of Islet-like Insulin expression cell colonies
intestinal stem cells [4] = assay: mRNA expression (qPCR) of ChgA and other lineage markers in differentiated intestinal stem cells; format: cell-based, mouse
Source text: “mRNA ChgA Expression Assay” refers to an assay used to determine the relative ChgA mRNA expression level in a cell population. For example, the assay can determine ChgA mRNA expression level of a differentiated cell population following treatment with agents being tested, as compared to an untested population of post-natal stem cells. In an example of an mRNA ChgA Expression Assay, the cells were collected and the RNA is extracted from the cells using an RNA extraction kit (such as RNeasy Mini kit, Qiagen). The ChgA expression level is then assessed by Quantitative real-time PCR using a one-step qPCR kit (such as QuantiTech Probe PCR kit, Qiagen) and ChgA primers and probes (such as commercially available Taqman probe for mouse ChgA, Life Technologies).
as §1
Cells were then cultured with EGF, Noggin, and DAPT (END), as well as small molecules. After 2-3 days of differentiation, the cells lysed and ChgA expression was measured by qRT-PCR.
Small molecules were further validated using a 24-well plate culture and the differentiation system. […] The expression of markers of secretory lineage cells including goblet cells (Muc2), enteroendocrine cells (ChgA), and Paneth cells (Lyz1) were measured.

intestinal stem cells [5] = assay: Ngn3 mRNA expression during EEC differentiation; format: cell-based, mouse; details: 2 days, added after removal of R-spondin1
Protocol: “Ngn3 Assay” as used herein is an assay used to determine the extent of expression of Ngn3 in cells, such as cells subjected to a differentiation protocol. In an exemplary Ngn3 Assay, RNA is isolated from cells that have been cultured according to a differentiation protocol, and quantitative real-time PCR is performed using commercially available primers and probes (such as Taqman probes) to determine an extent of Ngn3 expression in the cells.
as §1
There has been prior speculation that Ngn3 positive secretory progenitors differentiate to EECs (Genes Dev. 2002).

Compound	stem cells turned into EECs (intestinal stem cells [1])	concentration of highest activity / optimal concentration in promoting Insulin expression [2] [µM]	effect of removal [3]	expression of Goblet cell marker (Muc2) and Paneth cell marker (Lyz1) (intestinal stem cells [4]; 24-well validation, END conditions)	expression of enteroendocrine cell marker ChgA (intestinal stem cells [4]; multiple conditions (FIG. 6))	Ngn3 expression (intestinal stem cells [5])
C[C@H](NC(=O)Cc1cc(F)cc(F)c1)C(=O)N[C@H](C(=O)OC(C)(C)C)c1ccccc1 [DAPT, N—[N-(3,5-Difluorophenacetyl)-L-alanyl]-S-phenylglycine t-butyl ester]	5%-10%	5	could be removed without much influence			
O=C(NOC[C@H](O)CO)c1ccc(F)c(F)c1Nc1ccc(I)cc1F [PD0325901, N-[(2R)-2,3-Dihydroxypropoxyl]-3,4-difluoro-2-[(2-fluoro-4-iodophenyl)amino]-benzamide]			could be removed without much influence	not similarly increased	specifically increased	further decreased
